For one data set, the system named is synoviocytes. Briefly: 3H-thymidine incorporation into synoviocytes. The class given is cell-based. As to conditions: 6 or 24 hours incubation. Here is the method: At these times, 1×10^−6 cpm of ^3H-thymidine was added to the cell culture and incubated for 2 hours at 37° C. The cells were placed through a cell harvester, washed through a filter, the filters were cut, and the amount of radiation contained in the filter sections determined. Once the amount of thymidine incorporated into the cells was ascertained, it was used to determine the rate of cell proliferation. This experiment was repeated three times and the data collated together.
In general terms: Dividing cells build labelled thymidine or BrdU into new DNA.

The subject of data set [1] is neutrophils. Briefly: Neutrophil superoxide anion generation. The settings on record: paclitaxel at 28 μM. Type of data set: cell-based, human. Here is the method:
(§1) Opsonization of crystals or zymosan was done with 50% heparinized plasma at a concentration of 75 mg of CPPD or 12 mg of zymosan per ml of 50% plasma. Crystals or zymosan were incubated with plasma for 30 min. at 37° C. and then washed in excess HBSS.
Superoxide anion concentrations were measured using the superoxide dismutase inhibitable reduction of cytochrome c assay. Briefly, 25 mg of crystals or 0.5 mg of zymosan was placed in a 1.5 ml capped Eppendorf tube and warmed to 37° C. 0.5 ml of cells at 370 C were added together with ferricytochrome c (final concentration 1.2 mg/ml) and the cells were activated by shaking the capped tubes. […] Control tubes were set up under the same conditions with the inclusion of superoxide dismutase at 600 units per ml.

Data set [2] can be described thus: Release from 50:50 ELVAX:poly-l-lactic acid microspheres. Type of data set: physicochemical. The settings on record: 18 hours of tumbling at 37° C. Here is the method: Microspheres are then prepared in a dissolution machine (Six-spindle dissolution tester, VanderKanp, Van Kell Industries Inc., U.S.A.) in triplicate at 200 rpm, 42° C., for 3 hours. Microspheres so prepared are washed twice in water and sized on the microscope.

The test system of the next data set is synovial fibroblasts. Briefly: Synoviocyte proliferation (Trypan blue counting). As to conditions: 24 hours.
The test system of data set [3] is neutrophils. Briefly: Neutrophil chemiluminescence assay. Type of data set: cell-based. The settings on record: Homo sapiens, paclitaxel at 28 μM, read-out: inhibition of the peak chemiluminescence response. Here is the method: as §1
All chemiluminescence studies were performed at a cell concentration of 5,000,000 cells/ml in HBSS with CPPD (50 mg/ml). In all experiments 0.5 ml of cells was added to 25 mg of CPPD or 0.5 mg of zymosan in 1.5 ml capped Eppendorf tubes. 10 μl of luminol dissolved in 25% DMSO in HBSS was added to a final concentration of 1 μM and the samples were mixed to initiate neutrophil activation by the crystals or zymosan. Chemiluminescence was monitored using an LKB Luminometer (Model 1250.) at 37° C. with shaking immediately prior to measurements to resuspend the crystals or zymosan. Control tubes contained cells, drug and luminol (crystals absent).

The next data set concerns normal chondrocytes. Briefly: Chondrocyte viability (Trypan blue counting). Type of data set: cell-based. The settings on record: up to 10^−5 M, 72 hours.
Data set [4] relates to neutrophils. Briefly: Neutrophil degranulation assay (myeloperoxidase, lysozyme).
Data set [5] relates to chick chorioallantoic membrane (CAM). Briefly: Chick chorioallantoic membrane (CAM) assay, agent in methylcellulose disks. The settings on record: for Embryos Evaluated positive/total: 48 hours.
Another data set relates to collagenase mRNA. Briefly: IL-1 induced collagenase expression in chondrocytes (Northern blot). As to conditions: 10^−6 M, 2 hours prior to IL-1 (20 ng/ml), further 16 hours. Type of data set: cell-based, bovine. The protocol:
The cells were then incubated for a further 16 hours. Total RNA from bovine articular chondrocytes was isolated by the acidified guanidine isothiocyanate method and the collagenase mRNA determined by Northern blot analysis. The RNA samples were prepared as described above using ^32P-labeled rat collagenase cDNA.

In a further data set the test system is c-fos mRNA. Briefly: c-fos expression in chondrocytes (Northern blot). As to conditions: 10^−6 M, 10^−7 M and 10^−8 M for 2 hours, then TNF 30 ng/ml for 1 hour. Type of data set: cell-based, bovine.
Data set [6] deals with neutrophils. Briefly: Neutrophil viability (LDH release). The settings on record: paclitaxel at 46 μM for one hour at 37° C.
Procedure: Neutrophils were prepared from freshly collected human citrated whole blood. Briefly, 400 ml of blood were mixed with 80 ml of 4% dextran T500 (Phamacia LKB, Biotechnology AB Uppsala, Sweden) in HBSS and allowed to settle for 1 h. Plasma was collected continuously and 5 ml applied to 5 ml of Ficoll Paque (Pharmacia) in 15 ml polypropylene tubes (Corning, N.Y.). Following centrifugation at 500×g for 30 min, the neutrophil pellets were washed free of erythrocytes by 20 s of hypotonic shock. Neutrophils were resuspended in HBSS, kept on ice and used for experiments within 3 h. Neutrophil viability and purity was always greater than 90%.
Cells were incubated for 20 minutes at 33° C. then for 10 minutes at 37° C. before addition to crystals or zymosan.
Control tubes containing cells with drug (crystals absent) from degranulation experiments were also assayed for LDH.
The nature of data set [7]: Vanadyl sulfate release from PCL paste. Type of data set: physicochemical. Here is the method:
Drug release was determined essentially as described above in Example 33, except that a 65 mg pellet of a 10% w/w VOSO4:PCL was suspended in 10 ml of water and the supernatant analyzed for released Vanadyl Sulphate using UV/Vis absorbance spectroscopy of the peak in the 200 to 300 nm range.

A short description of data set [8]: MTX release from PCL paste. The class given is physicochemical. As to conditions: high MePEG concentrations (20% MePEG in PCL). Here is the method:
A known weight of a polymer (typically a 2.5 mg pellet) is added to a 15 ml test tube containing 14 ml of a buffer containing 10 mm Na2HPO4—NaH2PO4, 0.145 m NaCl and 0.4 g/l bovine serum albumin. The tubes are capped and tumbled at 37° C. At specific times all the 14 ml of the liquid buffer are removed and replaced with fresh liquid buffer.
For MTX the collected buffer is applied directly to the HPLC column with no need for extraction in methylene chloride. MTX is analyzed at 302 nm. For Vanadium containing compounds the liquid buffer is analyzed directly using a UV/VIS spectrometer in the 200 to 300 nm range.
Methotrexate (“MTX”; Sigma Chemical Co.) is ground in a pestle and mortar to reduce the particle size to below 5 microns. It is then mixed as a dry powder with polycaprolactone (molecular wt 18000 Birmingham Polymers, Alabama USA). The mixture is heated to 65° C. for 5 minutes and the molten polymer/methotrexate mixture is stirred into a smooth paste for 5 minutes. The molten paste is then taken into a 1 mL syringe, and extruded as desired.

Procedure for c-fos mRNA: Total RNA from bovine articular chondrocytes was isolated by the acidified guanidine isothiocyanate method and the levels of c-fos mRNA determined by Northern blot analysis. Denatured RNA samples (12 μg) were analyzed by gel electrophoresis in a denaturing 1% agarose gel, transferred to a nylon membrane (Bio-Rad), cross-linked with an ultraviolet cross-linker (Stratagene UV stratalinker 1800), and hybridized with ^32P-labeled rat c-fos DNA. mRNA for tubulin and total RNA were used as controls. To determine tubulin mRNA, the blots described above were subsequently stripped of DNA and re-probed with ^32P-labeled rat P-tubulin cDNA. This experimented was conducted three times and the data collated.

In the case of `CC(=O)O[C@H]1C(=O)[C@@]2(C)[C@H]([C@H](OC(=O)c3ccccc3)[C@]3(O)C[C@H](OC(=O)[C@H](O)[C@@H](NC(=O)c4ccccc4)c4ccccc4)C(C)=C1C3(C)C)[C@]1(OC(C)=O)CO[C@@H]1C[C@@H]2O` [Paclitaxel], in the data set on synoviocytes, the “lowest concentration inhibiting incorporation of 3H-thymidine” value was 10^−8 M. The “effect on superoxide anion production” value is “less dramatic than the inhibition of CPPD activation but was significant at all times” in the data set on neutrophils [1] (opsonised zymosan) and “decrease in the amount of superoxide generated at all times” in the data set with neutrophils [1] (plasma opsonised CPPD crystals). Also, the “% of the total drug released from the microspheres (fluorescence assay)” value in data set [2] worked out at 6%. Also, the “% of the total drug released from the microspheres (uv/vis assay)” value in [2] is 10.3%. Besides, the “toxicity to synovial fibroblasts in vitro” value in the data set on synovial fibroblasts (10^−6 M and 10^−5 M) is listed as “toxic”. The “lowest concentration inhibiting proliferation of the synoviocytes” value in the data set on synovial fibroblasts was 10^−7 M. Further, the inhibition at 28 µM amounted to 45% in the data set on neutrophils [3] (plasma opsonised zymosan); 52% in the data set with neutrophils [3] (plasma opsonized CPPD); 50% in the data set with neutrophils [4] (Homo sapiens, Neutrophil, […], read-out: inhibition of MPO release). In addition, the “effect on viability of normal chondrocytes” value with normal chondrocytes is recorded as “does not affect the viability”. Further, the “effect on lysozyme release” value in the data set on neutrophils [4] (paclitaxel at 28 μM, plasma opsonized CPPD) is recorded as “reduced lysozyme release”. Besides, the “effect on myeloperoxidase release” value in the data set with neutrophils [4] (plasma opsonized CPPD, paclitaxel 28 μM (FIG. 32A)) is recorded as “significantly inhibited”. Moreover, the “Embryos Evaluated positive/total” value in data set [5] (0.25 μg paclitaxel in methylcellulose disk) is given as 2/11; in [5] (0.5 μg paclitaxel in methylcellulose disk), 6/11; in data set [5] (1 μg paclitaxel in methylcellulose disk), 6/15; in [5] (5 μg paclitaxel in methylcellulose disk), 20/27; in data set [5] (10 μg paclitaxel in methylcellulose disk) it was 16/21; in [5] (30 μg paclitaxel in methylcellulose disk), 31/31. In addition, the “time for which avascular zones did not revascularize after application” value in data set [5] (in one study) is on record as “at least 7 days”. Further, in data set [5] (observed over the 48 hour duration), the “earliest time at which inhibition of angiogenesis occurs after application” value was found to be 9 h. In data set [5] (paclitaxel in methylcellulose disk, 48 hour exposure), this compound returned an avascular zone diameter of 6 mm. For the same compound, in data set [5] (within 48 hours, depending on concentration), the “avascular gradient scale (maximal avascular zone)” value stood at 3. In addition, the “effect on IL-1 induced collagenase expression” value in the data set with collagenase mRNA was “completely inhibited”. In the data set on c-fos mRNA, the “effect on c-fos expression” value is on record as “does not alter c-fos expression”. In the data set with neutrophils [6], the LDH release result is “less than 5 % of total”.

Take `O=S(=O)([O-])[O-].[O]=[V+2]` [VOSO4, Vanadyl Sulfate]: the “amount of VOSO4 released” value in data set [7] (after 2 days, 65 mg pellet of 10% w/w VOSO4:PCL in 10 ml water) worked out at 3 mg; in data set [7] (by day 6, 65 mg pellet of 10% w/w VOSO4:PCL in 10 ml water), 5 mg; in data set [7] (in 6 hours, 65 mg pellet of 10% w/w VOSO4:PCL in 10 ml water), 1 mg.

As to `CN(Cc1cnc2nc(N)nc(N)c2n1)c1ccc(C(=O)N[C@@H](CCC(=O)O)C(=O)O)cc1` [MTX, Methotrexate], in data set [8], the “amount of MTX released from the polymer” value was “substantial amounts”.

The inhibition is the relative decrease from the control value, in per cent.
